Laboratory results: patent US12539292B2, “BRM targeting compounds and associated methods of use” (Arvinas Operations, Inc., priority 2018, dated 2026)
Read-outs that look alike come from different tables or passages of the source.

Target: T1, BRM (Homo sapiens, UniProt P51531)
T1 construct: In-Cell Western Screen of BRM Degradation in SW1573 Cells; endogenous in cells; host or cells: SW1573
Assay: In-cell Western screen of BRM degradation in SW1573 cells (Dmax and DC50)
Type: cell-based
In short: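 BRM levels were read by LI-COR in-cell Western after two-channel (800/680 nm) immunostaining of fixed, Triton-permeabilised SW1573 cells.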

[1] = BRM degradation, SW1573 cells, read-out: DC50
[2] = BRM degradation, SW1573 cells, when tested at the top concentration of between 0.3 and 10 μM, read-out: Dmax (%) (% degraded)
[3] = SW1573, % degraded, when tested at the top concentration of between 0.3 and 10 μM, read-out: BRM Dmax (%)
[4] = target protein degradation, read-out: BRM DC50

T1 sequence (P51531 whole entry): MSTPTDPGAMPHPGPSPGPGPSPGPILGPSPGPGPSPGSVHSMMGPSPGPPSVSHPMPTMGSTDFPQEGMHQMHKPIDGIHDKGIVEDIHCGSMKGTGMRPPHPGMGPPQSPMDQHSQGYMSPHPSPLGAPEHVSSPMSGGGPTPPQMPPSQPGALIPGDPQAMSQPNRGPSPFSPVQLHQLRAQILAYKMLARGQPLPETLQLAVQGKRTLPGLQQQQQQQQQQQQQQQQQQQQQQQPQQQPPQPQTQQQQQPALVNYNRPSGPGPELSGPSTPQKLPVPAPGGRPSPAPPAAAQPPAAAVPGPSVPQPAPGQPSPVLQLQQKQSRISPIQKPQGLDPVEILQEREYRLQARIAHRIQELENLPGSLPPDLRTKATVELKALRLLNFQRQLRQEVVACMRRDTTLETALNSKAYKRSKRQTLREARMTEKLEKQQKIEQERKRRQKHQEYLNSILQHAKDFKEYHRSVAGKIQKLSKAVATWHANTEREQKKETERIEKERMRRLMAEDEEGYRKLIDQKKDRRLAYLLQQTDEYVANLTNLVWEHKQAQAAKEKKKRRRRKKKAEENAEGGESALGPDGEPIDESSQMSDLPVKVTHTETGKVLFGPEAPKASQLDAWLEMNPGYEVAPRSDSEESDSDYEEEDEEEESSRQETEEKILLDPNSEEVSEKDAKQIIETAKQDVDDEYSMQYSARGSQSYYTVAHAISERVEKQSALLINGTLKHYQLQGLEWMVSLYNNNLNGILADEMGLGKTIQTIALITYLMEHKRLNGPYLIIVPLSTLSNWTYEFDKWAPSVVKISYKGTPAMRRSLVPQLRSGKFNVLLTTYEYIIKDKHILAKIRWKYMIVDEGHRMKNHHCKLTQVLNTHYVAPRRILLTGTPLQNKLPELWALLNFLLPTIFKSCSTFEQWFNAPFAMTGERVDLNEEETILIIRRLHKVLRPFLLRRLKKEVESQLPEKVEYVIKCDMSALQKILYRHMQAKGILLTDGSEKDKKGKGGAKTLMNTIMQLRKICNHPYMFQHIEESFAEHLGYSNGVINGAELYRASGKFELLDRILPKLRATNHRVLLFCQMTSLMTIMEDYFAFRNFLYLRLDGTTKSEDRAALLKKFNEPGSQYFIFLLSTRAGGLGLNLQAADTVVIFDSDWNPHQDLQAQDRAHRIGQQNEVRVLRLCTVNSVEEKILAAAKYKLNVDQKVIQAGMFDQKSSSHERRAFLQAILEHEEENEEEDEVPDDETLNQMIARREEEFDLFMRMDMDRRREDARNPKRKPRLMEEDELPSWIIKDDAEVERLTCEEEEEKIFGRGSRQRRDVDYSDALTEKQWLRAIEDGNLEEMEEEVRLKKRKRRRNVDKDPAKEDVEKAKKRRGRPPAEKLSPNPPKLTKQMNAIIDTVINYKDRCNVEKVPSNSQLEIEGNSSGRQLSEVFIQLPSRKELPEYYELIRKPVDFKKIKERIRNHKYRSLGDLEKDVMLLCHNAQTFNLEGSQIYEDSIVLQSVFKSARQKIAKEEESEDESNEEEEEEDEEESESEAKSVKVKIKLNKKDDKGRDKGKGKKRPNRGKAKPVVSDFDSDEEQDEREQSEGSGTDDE

Compound | DC50 [1] [nM] | Dmax [2] [%] | Dmax [3] [%] | DC50 [4] [nM] | other results
Cc1ncsc1-c1ccc([C@H](C)NC(=O)[C@@H]2C[C@@H](O)CN2C(=O)[C@H](c2cc(N3CCC(F)(CN4CCC(O[C@H]5C[C@H](Oc6cc(N7C8CCC7CN(c7cc(-c9ccccc9O)nnc7N)C8)ccn6)C5)CC4)CC3)no2)C(C)C)cc1 [compound 682, (2S,4R)-1-((2S)-2-(3-(4-((4-((1r,3r)-3-((4-(3-(3-amino-6-(2-hydroxyphenyl)pyridazin-4-yl)-3,8-diazabicyclo[3.2.1]octan-8-yl)pyridin-2-yl)oxy)cyclobutoxy)piperidin-1-yl)methyl)-4-fluoropiperidin-1-yl)isoxazol-5-yl)-3-methylbutanoyl)-4-hydroxy-N-((S)-1-(4-(4-methylthiazol-5-yl)phenyl)ethyl)pyrrolidine-2-carboxamide] | 2.5 to 10 | – | – | – | Dmax (BRM degradation, SW1573 cells, read-out: Dmax (% degraded)): > 75%
Cc1ncsc1-c1ccc(CNC(=O)[C@@H]2C[C@@H](O)CN2C(=O)[C@@H](NC(=O)COCCOCCOCCOCCOCCOCCOc2cc(N3C4CCC3CN(c3cc(-c5ccccc5O)nnc3N)C4)ccn2)C(C)(C)C)cc1 [compound 8, (2S,4R)-1-((2S)-23-((4-(3-(3-amino-6-(2-hydroxyphenyl)pyridazin-4-yl)-3,8-diazabicyclo[3.2.1]octan-8-yl)pyridin-2-yl)oxy)-2-(tert-butyl)-4-oxo-6,9,12,15,18,21-hexaoxa-3-azatricosanoyl)-4-hydroxy-N-(4-(4-methylthiazol-5-yl)benzyl)pyrrolidine-2-carboxamide] | 10 to 30 | > 75 | – | – | –
Cc1ncsc1-c1ccc([C@H](C)NC(=O)[C@@H]2C[C@@H](O)CN2C(=O)[C@@H](c2cc(OCC#Cc3ncc(O[C@H]4C[C@H](Oc5cc(N6C7CCC6CN(c6cc(-c8ccccc8O)nnc6N)C7)ccn5)C4)cn3)no2)C(C)C)cn1 [compound 400, (2S,4R)-1-((2R)-2-(3-((3-(5-((1r,3R)-3-((4-(3-(3-amino-6-(2-hydroxyphenyl)pyridazin-4-yl)-3,8-diazabicyclo[3.2.1]octan-8-yl)pyridin-2-yl)oxy)cyclobutoxy)pyrimidin-2-yl)prop-2-yn-1-yl)oxy)isoxazol-5-yl)-3-methylbutanoyl)-4-hydroxy-N-((S)-1-(6-(4-methylthiazol-5-yl)pyridin-3-yl)ethyl)pyrrolidine-2-carboxamide] | – | – | > 75 | < 2.5 | –
Cc1ncsc1-c1ccc(CNC(=O)[C@@H]2C[C@@H](O)CN2C(=O)[C@@H](NC(=O)COCCOCCN2CCN(CCCc3cc(N4C5CCC4CN(c4cc(-c6ccccc6O)nnc4N)C5)ccn3)CC2)C(C)(C)C)cc1 [compound 40, (2S,4R)-1-[(2S)-2-[2-[2-(2-[4-[3-(4-[3-[3-amino-6-(2-hydroxyphenyl)pyridazin-4-yl]-3,8-diazabicyclo[3.2.1]octan-8-yl]pyridin-2-yl)propyl]piperazin-1-yl]ethoxy)ethoxy]acetamido]-3,3-dimethylbutanoyl]-4-hydroxy-N-[[4-(4-methyl-1,3-thiazol-5-yl)phenyl]methyl]pyrrolidine-2-carboxamide] | > 30 | < 50 | – | – | –
Cc1ncsc1-c1ccc([C@H](C)NC(=O)[C@@H]2C[C@@H](O)CN2C(=O)[C@H](c2cc(N3CCN(CC4CCN(C[C@H]5C[C@H](Oc6cc(N7C8CCC7CN(c7cc(-c9ccccc9O)nnc7N)C8)ccn6)C5)CC4)CC3)no2)C(C)C)cc1 [compound 457, (2S,4R)-1-((2S)-2-(3-(4-((1-(((1r,3r)-3-((4-(3-(3-amino-6-(2-hydroxyphenyl)pyridazin-4-yl)-3,8-diazabicyclo[3.2.1]octan-8-yl)pyridin-2-yl)oxy)cyclobutyl)methyl)piperidin-4-yl)methyl)piperazin-1-yl)isoxazol-5-yl)-3-methylbutanoyl)-4-hydroxy-N-((S)-1-(4-(4-methylthiazol-5-yl)phenyl)ethyl)pyrrolidine-2-carboxamide] | – | – | > 75 | < 2.5 | –
Cc1ncsc1-c1ccc([C@H](C)NC(=O)[C@@H]2C[C@@H](O)CN2C(=O)[C@H](c2cc(OCCC3CCN(C[C@H]4C[C@H](N5CCC(CN6CCOC7(CCN(c8cc(-c9ccccc9O)nnc8N)CC7)C6)CC5)C4)CC3)no2)C(C)C)cc1 [compound 597, (2S,4R)-1-((S)-2-(3-(2-(1-(((1r,3S)-3-(4-((9-(3-amino-6-(2-hydroxyphenyl)pyridazin-4-yl)-1-oxa-4,9-diazaspiro[5.5]undecan-4-yl)methyl)piperidin-1-yl)cyclobutyl)methyl)piperidin-4-yl)ethoxy)isoxazol-5-yl)-3-methylbutanoyl)-4-hydroxy-N-((S)-1-(4-(4-methylthiazol-5-yl)phenyl)ethyl)pyrrolidine-2-carboxamide] | – | – | – | – | Dmax (BRM degradation, SW1573 cells, Table 2D, read-out: **Dmax (%) (% degraded)): > 75%; DC50 (BRM degradation, SW1573 cells, Table 2D, read-out: *DC50): 10 to 30 nM
Cc1ncsc1-c1ccc([C@H](C)NC(=O)[C@@H]2C[C@@H](O)CN2C(=O)[C@H](c2cc(OCCN3CCN(CCCCN4CCOC5(CCN(c6cc(-c7ccccc7O)nnc6N)CC5)C4)CC3)no2)C(C)C)cc1 [compound 205, (2S,4R)-1-((S)-2-(3-(2-(4-(4-(9-(3-amino-6-(2-hydroxyphenyl)pyridazin-4-yl)-1-oxa-4,9-diazaspiro[5.5]undecan-4-yl)butyl)piperazin-1-yl)ethoxy)isoxazol-5-yl)-3-methylbutanoyl)-4-hydroxy-N-((S)-1-(4-(4-methylthiazol-5-yl)phenyl)ethyl)pyrrolidine-2-carboxamide] | > 30 | – | – | – | Dmax (BRM degradation, SW1573 cells, tested at the top concentration of between 0.3 and 10 μM, read-out: Dmax (%) (% degraded)): > 75%
Cc1ncsc1-c1ccc([C@H](C)NC(=O)[C@@H]2C[C@@H](O)CN2C(=O)[C@H](c2cc(OCCN3CCN(CCOc4cc(N5C6CCC5CN(c5cc(-c7ccccc7O)nnc5N)C6)ccn4)CC3)no2)C(C)C)cc1 [compound 46, (2S,4R)-1-[(2S)-2-[3-[2-(4-[2-[(4-[3-[3-amino-6-(2-hydroxyphenyl)pyridazin-4-yl]-3,8-diazabicyclo[3.2.1]octan-8-yl]pyridin-2-yl)oxy]ethyl]piperazin-1-yl)ethoxy]-1,2-oxazol-5-yl]-3-methylbutanoyl]-4-hydroxy-N-[(1S)-1-[4-(4-methyl-1,3-thiazol-5-yl)phenyl]ethyl]pyrrolidine-2-carboxamide] | > 30 | 50 to 75 | – | – | –
Cc1ncsc1-c1ccc([C@@H](NC(=O)[C@@H]2C[C@@H](O)CN2C(=O)[C@H](c2cc(OCCN3CCC(O[C@H]4C[C@H](Oc5cc(N6C7CCC6CN(c6cc(-c8ccccc8O)nnc6N)C7)ccn5)C4)CC3)no2)C(C)C)C(=O)N(C)C2CCC2)cc1 [compound 423, (2S,4R)-1-((2S)-2-(3-(2-(4-((1r,3S)-3-((4-(3-(3-amino-6-(2-hydroxyphenyl)pyridazin-4-yl)-3,8-diazabicyclo[3.2.1]octan-8-yl)pyridin-2-yl)oxy)cyclobutoxy)piperidin-1-yl)ethoxy)isoxazol-5-yl)-3-methylbutanoyl)-N-((R)-2-(cyclobutyl(methyl)amino)-1-(4-(4-methylthiazol-5-yl)phenyl)-2-oxoethyl)-4-hydroxypyrrolidine-2-carboxamide] | – | – | – | – | DC50 (degradation of BRM, read-out: BRM DC50): > 30 nM
Cc1ncn(C)c1-c1ccc([C@H](C)NC(=O)[C@@H]2C[C@@H](O)CN2C(=O)[C@@H](c2cc(OCCN3CCC(O[C@H]4C[C@H](Oc5cc(N6C7CCC6CN(c6cc(-c8ccccc8O)nnc6N)C7)ccn5)C4)CC3)no2)C(C)C)cc1 [compound 366, (2S,4R)-1-((2R)-2-(3-(2-(4-((1r,3R)-3-((4-(3-(3-amino-6-(2-hydroxyphenyl)pyridazin-4-yl)-3,8-diazabicyclo[3.2.1]octan-8-yl)pyridin-2-yl)oxy)cyclobutoxy)piperidin-1-yl)ethoxy)isoxazol-5-yl)-3-methylbutanoyl)-N-((S)-1-(4-(1,4-dimethyl-1H-imidazol-5-yl)phenyl)ethyl)-4-hydroxypyrrolidine-2-carboxamide] | – | – | > 75 | 2.5 to 10 | –
